“And” between values parts separate entries of the source, which are not always exact repeats. Equal values may be shown once. No end group written: not given here.
Experiments:
Female Kunming mice = format: in vivo; conditions: mouse, in vivo, ip
Kunming mice [1] = format: in vivo; conditions: mouse, in vivo
Kunming mice [2] = conditions: mouse, in vivo

GCCSTPPCAVLYC (cysteine pairing not given here) [Conotoxin, reference compound]
Pain threshold (Female Kunming mice): 27.29 ± 0.48 s and 29.32 ± 0.18 s and 24.1 ± 0.28 s and 30.39 ± 0.28 s and 27.39 ± 0.28 s and 26.21 ± 0.38 s and 24.63 ± 0.12 s | Pain threshold (tail flick) (Kunming mice [1]): 2.23 ± 0.18 s and 2.32 ± 0.28 s and 2.21 ± 0.12 s and 2.31 ± 0.18 s and 2.12 ± 0.12 s and 2.63 ± 0.12 s | cumulative foot licking time, Phase I (Kunming mice [2]): 50.38 ± 9.38 | cumulative foot licking time, Phase II (Kunming mice [2]): 53.64 ± 15.32
